Here are results for 19 compounds from PubChem BioAssay AID262 (DTP/NCI, 2004).

Several values for one entry are separate records, joined by “and”; a condition that tells them apart may be missing. Equal values may be shown once.

For the experiment, the system named is LX-1 lung xenograft sc, nude mice, tumor weight. Briefly: NCI In Vivo Anticancer Drug Screen. Data for tumor model Human Lung LX-1 Xenograft (subcutaneous) in NU/NU Swiss (nude) mice. As to conditions: endpoint: optimum tumor weight change, higher = larger tumour. As to the method:
The antitumor activity of compounds was measured in mice bearing transplantable tumors. Survival or tumor size were measured and the results are expressed as the measurement made in the treated group (T) divided by the measurement made in the vehicle treated control group (C). The tumor model used in this assay is Human Lung LX-1 Xenograft (subcutaneous) in NU/NU Swiss (nude) mice
(Xenograft models place foreign cells or tissue in a host animal.)

The mark [1] stands for this setting: dose: 12.5 mg/kg/injection, schedule: Q04DX003 (ip), vehicle: Klucel (hydroxypropylcellulose) (HPC).
[2] abbreviates: dose: 400.0 mg/kg/injection, schedule: Q04DX003 (ip), vehicle: saline.
The mark [3] stands for this setting: dose: 800.0 mg/kg/injection, schedule: Q04DX003 (ip), vehicle: saline.
Setting [4] is: dose: 0.5 mg/kg/injection, schedule: Q04DX003 (ip), vehicle: saline.
[5] abbreviates: dose: 1.0 mg/kg/injection, schedule: Q04DX003 (ip), vehicle: saline.
Where [6] appears, read: dose: 100.0 mg/kg/injection, schedule: Q04DX003 (ip), vehicle: saline with Tween-80.
[7] abbreviates: dose: 4.0 mg/kg/injection, schedule: Q04DX003 (ip), vehicle: saline.

As for `COc1cccc2c1C(=O)c1c(O)c3c(c(O)c1C2=O)C[C@@](O)(/C(C)=N\O)C[C@@H]3OC1CC(N)C(O)C(C)O1` (stereo not given in full), the T/C (dose: 12.5 mg/kg/injection, schedule: Q04DX003 (ip), vehicle: saline) was 55 % of control.
On to `COc1cc([C@@H]2c3cc4c(c(O)c3C[C@H]3COC(=O)[C@@H]32)OCO4)cc(OC)c1OC`, for which the T/C by setting is: (dose: 2.5 mg/kg/injection, schedule: Q04DX003 (ip), vehicle: saline) 107 % of control; (dose: 5.0 mg/kg/injection, schedule: Q04DX003 (ip), vehicle: saline) 73 % of control; (dose: 10.0 mg/kg/injection, schedule: Q04DX003 (ip), vehicle: saline) 86 % of control; (dose: 20.0 mg/kg/injection, schedule: Q04DX003 (ip), vehicle: saline) 64 % of control.
As to `CS(=O)(=O)OCCN(CCOS(C)(=O)=O)c1ccc(C=Nc2ccc(-c3csc(COc4ccccc4)n3)cc2)cc1`, the T/C (dose: 100.0 mg/kg/injection, schedule: Q04DX003 (ip), vehicle: Klucel (hydroxypropylcellulose) (HPC)) was 82 % of control.
Take `OCC1OC(n2cnc3cncnc32)C(O)C1O` (stereo not given): for the setting “dose: 25.0 mg/kg/injection, schedule: Q04DX003 (ip), vehicle: saline”, the T/C is 83 % of control.
Take `Oc1cc2c3c(c1)c1cc4c(cc1c[n+]3CC2)OCO4`: the T/C reads like this: (dose: 12.5 mg/kg/injection, schedule: Q04DX003 (ip), vehicle: water) 78 % of control; (dose: 25.0 mg/kg/injection, schedule: Q04DX003 (ip), vehicle: water) 63 % of control; (dose: 50.0 mg/kg/injection, schedule: Q04DX003 (ip), vehicle: water) 62 % of control.
On to `CN(C)N=Nc1cccc(C(N)=O)c1`, for which the T/C is, setting by setting: under setting [1], 98 % of control; (dose: 25.0 mg/kg/injection, schedule: Q04DX003 (ip), vehicle: Klucel (hydroxypropylcellulose) (HPC)) 36 % of control.
On to `COc1cc([C@@H]2c3cc4c(c(O)c3C[C@H]3COC(=O)[C@@H]32)OCO4)cc(OC)c1O`, for which the T/C reads like this: (dose: 3.13 mg/kg/injection, schedule: Q04DX003 (ip), vehicle: saline) 122 % of control; (dose: 6.25 mg/kg/injection, schedule: Q04DX003 (ip), vehicle: saline) 55 % of control.
Regarding `CCC[CH2][Sn]1([CH2]CCC)[O]C2C(CO)OC(n3ccc(N)nc3=O)C2[O]1` (stereo not given), the T/C by setting is: (dose: 3.13 mg/kg/injection, schedule: Q04DX003 (ip), vehicle: Klucel (hydroxypropylcellulose) (HPC)) 107 % of control and 108 % of control; (dose: 6.25 mg/kg/injection, schedule: Q04DX003 (ip), vehicle: Klucel (hydroxypropylcellulose) (HPC)) 197 % of control; under setting [1], 77 % of control.
Regarding `O=C(O)CP(=O)(O)O`, the T/C was 98 % of control under setting [2]; 90 % of control under setting [3]; 75 % of control (dose: 1600.0 mg/kg/injection, schedule: Q04DX003 (ip), vehicle: saline).
In the case of `COc1cccc2c1C(=O)c1c(O)c3c(c(O)c1C2=O)C[C@@](O)(C(C)=O)C[C@@H]3OC1CC(N)C(O)C(C)O1` (stereo not given in full), the T/C reads like this: (dose: 0.25 mg/kg/injection, schedule: Q04DX003 (ip), vehicle: saline) 52 % of control; under setting [4], 39 % of control; under setting [5], 86 % of control.
With `CC(=O)Oc1ccc[nH]c1=O`, the T/C is 91 % of control (dose: 50.0 mg/kg/injection, schedule: Q04DX003 (ip), vehicle: saline with Tween-80); 81 % of control under setting [6]; 76 % of control (dose: 400.0 mg/kg/injection, schedule: Q04DX003 (ip), vehicle: saline with Tween-80); 73 % of control (dose: 800.0 mg/kg/injection, schedule: Q04DX003 (ip), vehicle: saline with Tween-80).
As to `Nc1ccc(Cl)cc1N`, the T/C under setting [6] is 101 % of control.
Regarding `N[C@H](C(=O)O)[C@@H]1CC(Cl)=NO1`, the T/C reads like this: (dose: 8.0 mg/kg/injection, schedule: Q01DX009 (ip), vehicle: saline) 31 % of control; (dose: 16.0 mg/kg/injection, schedule: Q01DX009 (ip), vehicle: saline) 17 % of control; (dose: 32.0 mg/kg/injection, schedule: Q01DX009 (ip), vehicle: saline) 24 % of control; (dose: 100.0 mg/kg/injection, schedule: Q04DX003 (ip), vehicle: suspension in saline) 36 % of control; (dose: 200.0 mg/kg/injection, schedule: Q04DX003 (ip), vehicle: suspension in saline) 27 % of control; under setting [2], 6 % of control. Further, the T/C (dose: 400.0 mg/kg/injection, schedule: Q04DX003 (ip), vehicle: suspension in saline) was 15 % of control.
Consider `O=C1N(Cl)C(=O)C(c2ccc(Cl)cc2)(c2ccc(Cl)cc2)N1Cl`, for which the T/C is, setting by setting: under setting [6], 66 % of control; (dose: 200.0 mg/kg/injection, schedule: Q04DX003 (ip), vehicle: saline with Tween-80) 42 % of control.
For `N=c1nc2n(cc1F)[C@@H]1O[C@H](CO)[C@@H](O)[C@@H]1O2`, the T/C is 67 % of control (dose: 100.0 mg/kg/injection, schedule: Q04DX003 (ip), vehicle: saline); 59 % of control (dose: 200.0 mg/kg/injection, schedule: Q04DX003 (ip), vehicle: saline); 78 % of control under setting [2]; 72 % of control under setting [3].
In the case of `COc1ccc2c(NCCCCCCCCNc3c4ccccc4nc4cc(OC)ccc34)c3ccccc3nc2c1`, the T/C runs as follows: (dose: 0.5 mg/kg/injection, schedule: Q04DX003 (ip), vehicle: distilled water + alcohol) 67 % of control; under setting [4], 60 % of control; (dose: 1.0 mg/kg/injection, schedule: Q04DX003 (ip), vehicle: distilled water + alcohol) 45 % of control; under setting [5], 61 % of control; (dose: 2.0 mg/kg/injection, schedule: Q04DX003 (ip), vehicle: distilled water + alcohol) 79 % of control; (dose: 2.0 mg/kg/injection, schedule: Q04DX003 (ip), vehicle: saline) 86 % of control. Further, the T/C is, setting by setting: (dose: 4.0 mg/kg/injection, schedule: Q04DX003 (ip), vehicle: distilled water + alcohol) 45 % of control; under setting [7], 65 % of control.
Turning to `CN(C)c1nc(N(C)C)nc(N(C)C)n1`, the T/C reads like this: (dose: 60.0 mg/kg/injection, schedule: Q01DX005 (ip), vehicle: Klucel (hydroxypropylcellulose) (HPC)) 71 % of control; (dose: 60.0 mg/kg/injection, schedule: Q07DX005 (ip), vehicle: Klucel (hydroxypropylcellulose) (HPC)) 188 % of control; (dose: 120.0 mg/kg/injection, schedule: Q01DX005 (ip), vehicle: Klucel (hydroxypropylcellulose) (HPC)) 85 % of control; (dose: 120.0 mg/kg/injection, schedule: Q07DX005 (ip), vehicle: Klucel (hydroxypropylcellulose) (HPC)) 78 % of control.
Regarding `CN(CO)c1nc(N(C)CO)nc(N(C)CO)n1`, the T/C was 79 % of control and 226 % of control (dose: 25.0 mg/kg/injection, schedule: Q01DX005 (ip), vehicle: saline); 114 % of control (dose: 25.0 mg/kg/injection, schedule: Q04DX005 (ip), vehicle: saline); 59 % of control and 73 % of control (dose: 50.0 mg/kg/injection, schedule: Q01DX005 (ip), vehicle: saline); 79 % of control and 84 % of control (dose: 50.0 mg/kg/injection, schedule: Q04DX005 (ip), vehicle: saline); 29 % of control (dose: 50.0 mg/kg/injection, schedule: Q07DX005 (ip), vehicle: saline); 102 % of control and 122 % of control (dose: 100.0 mg/kg/injection, schedule: Q01DX005 (ip), vehicle: saline). The T/C is, setting by setting: (dose: 100.0 mg/kg/injection, schedule: Q04DX005 (ip), vehicle: saline) 93 % of control; (dose: 100.0 mg/kg/injection, schedule: Q07DX005 (ip), vehicle: saline) 26 % of control and 33 % of control; (dose: 200.0 mg/kg/injection, schedule: Q01DX005 (ip), vehicle: saline) -5 % of control; (dose: 200.0 mg/kg/injection, schedule: Q07DX005 (ip), vehicle: saline) 49 % of control and 55 % of control.
Turning to `Cc1c(N)nc(C(CC(N)=O)NCC(N)C(N)=O)nc1C(=O)NC(C(=O)NC(C)C(O)CC(=O)NC(C(=O)NC(OC1OC(C)C(N)C(O)C1O)C(O)c1nc(-c2nc(C(=O)NCCCC(N)CC(=O)NCCCNCCCCN)cs2)cs1)C(C)O)C(OC1OC(CO)C(O)C(O)C1OC1OC(CO)C(O)C(OC(N)=O)C1O)c1cnc[nH]1` (stereo not given), the T/C by setting is: under setting [7], 52 % of control; (dose: 8.0 mg/kg/injection, schedule: Q04DX003 (ip), vehicle: saline) 23 % of control.
